Tests used:
Type in all cases: in vivo
Setaria viridis = test: Test Example 5: herbicidal effect by foliage application, plastic box (symbol G); conditions: 320 g/ha, 3 weeks after application
How it was run: (§1)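 Leaf-applied emulsion, water-diluted to a preset herbicide dose, on two-week-old seedlings raised in a 25° C. to 30° C. greenhouse; injury rated at 3 weeks using earlier criteria.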

Amaranthus retroflexus = test: Test Example 4: herbicidal effect by soil treatment (symbol N)
How it was run: (§2)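 Seeds were sown in sterilized diluvial soil, covered with about 1.5 cm of soil, and the soil surface was sprayed with a water-diluted emulsion of the compound at a predetermined rate. Plants grew in a greenhouse at 25° C. to 30° C.; effects were scored visually 3 weeks after application.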

[1] = system: Echinochloa crus-galli var. crus-galli; test: Test Example 4: herbicidal effect by soil treatment (symbol H)
How it was run: as §2

beet = test: Test Example 4: effect on crop by soil treatment (symbol f)
How it was run: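 Plants are raised in a greenhouse (25° C. to 30° C.) from spot-sown seed, which sits under about 1.5 cm of sterilized diluvial soil in a box shared with weed species.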

soybean = test: Test Example 5: effect on crop by foliage application, plastic box (symbol d); conditions: 320 g/ha, 3 weeks after application
How it was run: (§3)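 Greenhouse culture at 25° C. to 30° C. followed spot-like sowing into sterilized diluvial soil, with seed covered by roughly 1.5 cm of soil.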

Veronica persica [2] = test: Test Example 5: herbicidal effect by foliage application, plastic box (symbol R); conditions: 320 g/ha, 3 weeks after application
How it was run: as §1

corn = test: Test Example 4: effect on crop by soil treatment (symbol c)
How it was run: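 Diluvial soil (sterilized) in boxes; seeds placed spot-wise alongside weed species; ~1.5 cm covering soil. Greenhouse, 25–30° C.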

Galium spurium = test: Test Example 5: herbicidal effect by foliage application, plastic box (symbol Q); conditions: 320 g/ha, 3 weeks after application
How it was run: as §1

transplanted rice plant = test: Test Example 1: effect on crop, application before weed generation in submerged conditions (symbol a); conditions: application herbicide amount 320 g/ha
How it was run: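 Rice at 2.5 leaf stage transplanted into submerged soil (4 cm depth) sown with three weed species; herbicide applied before weed emergence.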

Veronica persica [3] = test: Test Example 4: herbicidal effect by soil treatment (symbol R)
How it was run: as §2

wheat = test: Test Example 5: effect on crop by foliage application, plastic box (symbol e); conditions: 320 g/ha, 3 weeks after application
How it was run: as §3

Scirpus juncoides = test: Test Example 1: herbicidal activity, application before weed generation in submerged conditions (symbol B); conditions: application herbicide amount 320 g/ha
How it was run: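 In a flooded pot test with alluvial soil, the emulsion-formulated compound was diluted with water to a predetermined amount and applied to the floodwater immediately on the sowing day. Pots were held in a greenhouse at 25–30 °C for 3 weeks before each weed was rated.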

Cyperus difformis = test: Test Example 3: herbicidal effect by foliage application, Wagner pot (symbol E); conditions: application herbicide amount 320 g/ha
How it was run: (§4)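 Scoring took place 3 weeks after application, using fixed criteria. Plants had been raised from seed for 14 days at 25 to 30 °C in submerged alluvial soil before a diluted emulsion of the test compound was sprayed uniformly on the leaves.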

Lolium multiflorum Lam. = test: Test Example 4: herbicidal effect by soil treatment (symbol K)
How it was run: as §2

Leptochloa chinensis = test: Test Example 3: herbicidal effect by foliage application, Wagner pot (symbol D); conditions: application herbicide amount 320 g/ha
How it was run: as §4

[4] = application herbicide amount 320 g/ha

CCCCCCCCC(=O)OC1=C(c2c(C)cc(C)cc2C)C(=O)C(CC(C)=NOC)C1 (stereo not drawn) [1-033]
G: Setaria viridis, herbicidal effect grade (Setaria viridis): 5 (Herbicidal ratio of 90% or more (almost completely withered)) | N (Amaranthus retroflexus) herbicidal effect grade (Amaranthus retroflexus; [4]): 5 (Herbicidal ratio of 90% or more (almost completely withered)) | H (Echinochloa crus-galli var. crus-galli) herbicidal effect grade [1, 4]: 5 (Herbicidal ratio of 90% or more (almost completely withered)) | f (beet) effect on crop grade (beet; [4]): 1 (Herbicidal ratio of 5% or higher and lower than 20%) | d: soybean, effect on crop grade (soybean): 4 (Herbicidal ratio of 70% or higher and lower than 90%) | R: Veronica persica, herbicidal effect grade (Veronica persica [2]): 2 (Herbicidal ratio of 20% or higher and lower than 40%) | c (corn) effect on crop grade (corn; [4]): 4 (Herbicidal ratio of 70% or higher and lower than 90%) | Q: Galium spurium, herbicidal effect grade (Galium spurium): 1 (Herbicidal ratio of 5% or higher and lower than 20%) | Effect grade on crop, a: transplanted rice plant (transplanted rice plant): 5 (Herbicidal ratio of 90% or more (almost completely withered)) | R (Veronica persica) herbicidal effect grade (Veronica persica [3]; [4]): 1 (Herbicidal ratio of 5% or higher and lower than 20%) | e: wheat, effect on crop grade (wheat): 5 (Herbicidal ratio of 90% or more (almost completely withered)) | Herbicidal effect grade, B: Scirpus juncoides (Scirpus juncoides): 4 (Herbicidal ratio of 70% or higher and lower than 90%) | herbicidal effect on E, grade 0-5 (Cyperus difformis): 5 (Herbicidal ratio of 90% or more (almost completely withered)) | K (Lolium multiflorum Lam.) herbicidal effect grade (Lolium multiflorum Lam.; [4]): 5 (Herbicidal ratio of 90% or more (almost completely withered)) | herbicidal effect on D (Leptochloa chinensis), grade 0-5 (Leptochloa chinensis): 5 (Herbicidal ratio of 90% or more (almost completely withered))

CON=C(C)CC1CC(OC(=O)COCc2ccccc2)=C(c2c(C)cc(C)cc2C)C1=O (stereo not drawn) [1-094]
G: Setaria viridis, herbicidal effect (criteria 0-5) (Setaria viridis): 5 (Herbicidal ratio of 90% or more (almost completely withered)) | N: Amaranthus retroflexus, herbicidal effect grade (Amaranthus retroflexus; 320 g/ha): 4 (Herbicidal ratio of 70% or higher and lower than 90%) | H: Echinochloa crus-galli var. crus-galli, herbicidal effect grade ([1]; 320 g/ha): 5 (Herbicidal ratio of 90% or more (almost completely withered)) | f: beet, effect grade on crop (beet; 320 g/ha): 0 (Herbicidal ratio of 5% or lower (almost no effect)) | d: soybean, effect on crop (criteria 0-5) (soybean): 2 (Herbicidal ratio of 20% or higher and lower than 40%) | R: Veronica persica, herbicidal effect (criteria 0-5) (Veronica persica [2]): 3 (Herbicidal ratio of 40% or higher and lower than 70%) | c: corn, effect grade on crop (corn; 320 g/ha): 4 (Herbicidal ratio of 70% or higher and lower than 90%) | Q: Galium spurium, herbicidal effect (criteria 0-5) (Galium spurium): 0 (Herbicidal ratio of 5% or lower (almost no effect)) | Effect grade on crop, a: transplanted rice plant (transplanted rice plant): 5 (Herbicidal ratio of 90% or more (almost completely withered)) | R: Veronica persica, herbicidal effect grade (Veronica persica [3]; 320 g/ha): 0 (Herbicidal ratio of 5% or lower (almost no effect)) | e: wheat, effect on crop (criteria 0-5) (wheat): 5 (Herbicidal ratio of 90% or more (almost completely withered)) | Herbicidal effect grade, B: Scirpus juncoides (Scirpus juncoides): 5 (Herbicidal ratio of 90% or more (almost completely withered)) | herbicidal effect on E, grade 0-5 (Cyperus difformis): 4 (Herbicidal ratio of 70% or higher and lower than 90%) | K: Lolium multiflorum Lam., herbicidal effect grade (Lolium multiflorum Lam.; 320 g/ha): 5 (Herbicidal ratio of 90% or more (almost completely withered)) | herbicidal effect on D (Leptochloa chinensis), grade 0-5 (Leptochloa chinensis): 5 (Herbicidal ratio of 90% or more (almost completely withered))

Reference: patent US11000033B2, “Ketone or oxime compound, and herbicide” (NISSAN CHEMICAL CORPORATION, priority 2014, dated 2021)
